Test results: patent publication US8663646B2, “P53 peptide vaccine” (priority 2007, dated 2014)

What was measured:
[1] = molecular target: T1, 20S household proteasomes from human tumor cell line (HeLa) (Homo sapiens, UniProt P28072+P28074+Q99436); test: In vitro proteasome mediated digestion of 30-mers, mass spectrometry, household proteasome HeLa; type: biochemical; settings: 30 residue long precursor peptides
T1 construct: 20S household proteasomes were purified from human tumor cell line (HeLa); endogenous in cells; host or cells: HeLa cells; 20S proteasome purified from them
Protocol: (§1) In the context of the invention, “being inefficiently processed by a proteasome” preferably means that within the first hour of digestion by a proteasome less than 1% of total digested peptide is found. The processing by a proteasome is preferably assessed by incubating a purified proteasome, more preferably a human proteasome with a peptide comprising the potential CTL epitope (30 amino acid length approximately) in a proteasome digestion buffer during at least one hour at 37° C. The reaction is subsequently stopped by adding trifluoroacetic acid. Analysis of the digested peptides is performed with electrospray ionization mass spectrometry (see example 1). Even more preferably, the human proteasome is an immunoproteasome from B-LCL JY cells (Kessler J H et al. 2001).
(§2) 20S immuno-proteasomes were purified from a mouse B-cell line (RMA) and a human B-LCL cell line (JY) and 20S household proteasomes were purified from human tumor cell line (HeLa) as described (Kessler J H et al 2001). To assess kinetics, digestions were performed with different incubation periods as indicated. Briefly, peptides containing the (potential) CTL epitopes (30 mers, 20 μg) were incubated with 1 μg of purified proteasome at 37° C. for 1 h, 4 h and 24 h in 300 μl proteasome digestion buffer, trifluoroacetic acid (30 μl) was added to stop the digestion and samples were stored at −20° C. before mass spectrometric analysis. Electrospray ionization mass spectrometry was performed on a hybrid quadrupole time-of-flight mass spectromter, a Q-TOF (Micromass), equipped with an on-line nanoelectrospray interface with an approximate flow rate of […] as described (Kessler J H et al 2001). The peaks in the mass spectrum were searched in the digested precursor peptide using the Biolynx/proteins software (Micromass) supplied with the mass spectrometer. The intensity of the peaks in the mass spectra was used to establish the relative amounts of peptides generated after proteasome digestion. The relative amounts of the peptides are given as a percentage of the total amount of peptide digested by the proteasome at the indicated incubation time. Major cleavage sites are defined as more than >1% of total digested peptide within the first hour.

[2] = molecular target: T2, 20S immuno-proteasomes from mouse B-cell line (RMA) (Mus musculus, UniProt O35955+P28063+P28076); test: In vitro proteasome mediated digestion of 30-mers, mass spectrometry, immunoproteasome RMA; type: biochemical; settings: 30 residue long precursor peptides
T2 construct: 20S immuno-proteasomes were purified from a mouse B-cell line (RMA); endogenous in cells; host or cells: RMA cells; 20S proteasome purified from them
Protocol: as §1, §2

HLA-A*2401 [3] = test: Competition based cellular binding assay, HLA-A*2401 (B-cell line VIJF); parameters: species or system human; settings: for Peptide Binding Affinity: HLA-A*2401, IC50 category
HLA-A*2401 [4] = test: Stability of peptide-HLA complex, binding at 4° C. and 20° C., HLA-A*2401; parameters: species or system human; settings: for Peptide Binding Stability: HLA-A*2401, IC50 at 20° C. vs 4° C.
Protocol: Stability of other peptide-HLA complexes was preferably determined as follows. […] Peptides of >50% of the initial complexes was lost within 2 hours were considered unstable. […] The rest was designated as unstable peptide binding.
Peptides 8-11 residues in length were selected based on typical anchor residues for HLA-A*0101, A*0301, A*1101 and HLA-A*2401 (Rammensee H G et al). The capacity of peptides to bind was tested in a competition based cellular binding assay as previously described (van der Burg S H et al 1995). FL-labeled reference peptides were synthesized as Cys-derivative (van der Burg S H et al 1995). Fluorescence labeled reference peptides used were: YLEPAC(FL)AK (SEQ ID NO: 87) (HLA-A*0101) and KVFPC(FL)ALINK (SEQ ID NO: 88) (HLA-A*1101) (Sette A et al), KVFPC(FL)ALINK (SEQ ID NO: 89) (HLAA*0301) (van der Burg S H et al 1995) and RYLKC(FL)QQLL (SEQ ID NO: 90) (A*2401) (Dai L C et al). B-cell lines used are: CAA (A*0101), EKR (A*0301), BVR (A*1101), VIJF (A*2401). The relative binding capacity of the peptides is expressed as the peptide concentration to inhibit 50% (1050) of the binding of the reference peptide. […] Peptide stabilization for HLA-A*0201 was performed as previously described (van der Burg S H et al, 1996). Peptides of >50% of the initial complexes was lost within 2 hours were considered unstable. Stability of other peptide-HLA complexes was determined as follows. Peptide binding was performed at 4° C. and 20° C. and 1050 were determined. […] The rest was designated as unstable peptide binding.

[5] = molecular target: T3, 20S immuno-proteasomes from human B-LCL cell line (JY) (Homo sapiens, UniProt P28062+P28065+P40306); test: In vitro proteasome mediated digestion of 30-mers, mass spectrometry, immunoproteasome JY; type: biochemical; settings: 30 residue long precursor peptides
T3 construct: purified from a mouse B-cell line (RMA) and a human B-LCL cell line (JY); endogenous in cells; host or cells: B-LCL JY cells; 20S proteasome purified from them
Protocol: as §1, §2

HLA-A*0201 = HLA-A*0201 (Homo sapiens, UniProt P04439, D140Y/D185E/D98H/E176V/E277Q/G131W/G231S/I119V/I121R/I166T/I218V/L300P/L318F/N151K/N90K/P208A/P217A/Q86G/Q94H/R138H/R169H/T345S); test: Peptide stabilization for HLA-A*0201; type: binding
HLA-A*0101 = molecular target: T4, HLA-A*0101 (Homo sapiens, UniProt P04439, A114D/A174V/A182V/D101N/D185E/E176A/E190D/L180R/Q94H/R68K/S129P/T187R/V100A/V91M/W191G); test: Stability of peptide-HLA complex, binding at 4° C. and 20° C., HLA-A*0101; settings: for HLA binding Stability (Table 5): HLA type A1; for Peptide Binding Stability: HLA-A*0101, IC50 at 20° C. vs 4° C.
T4 construct: B-cell lines used are: CAA (A*0101), EKR (A*0301), BVR (A*1101), VIJF (A*2401); endogenous in cells; host or cells: B-cell line CAA

HLA-A*0301 = molecular target: T5, HLA-A*0301 (Homo sapiens, UniProt P04439); test: Stability of peptide-HLA complex, binding at 4° C. and 20° C., HLA-A*0301
T5 construct: B-cell lines used are: CAA (A*0101), EKR (A*0301), BVR (A*1101), VIJF (A*2401); endogenous in cells; host or cells: B-cell line EKR
Summary of the method: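 Competition binding used B-cell lines CAA (A*0101), EKR (A*0301), BVR (A*1101) and VIJF (A*2401) against fluorescein-labelled reference peptides. IC50 is the peptide concentration inhibiting 50% of reference binding. Binding was run at 4 °C and 20 °C with IC50 determined at each; complexes losing >50% within 2 hours were deemed unstable.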

CC(C)C[C@H](NC(=O)[C@H](CC(C)C)NC(=O)[C@H](CCCCN)NC(=O)[C@H](Cc1c[nH]c2ccccc12)NC(=O)[C@H](CC(C)C)NC(=O)[C@H](CC(=O)O)NC(=O)[C@H](CO)NC(=O)[C@H](Cc1ccccc1)NC(=O)[C@@H](N)[C@@H](C)O)C(=O)O [p53 18-26]
Proteasomal Cleavage of C-terminus, HH (HeLa) [1]: + (Major cleavage sites are defined as more than >1% of total digested peptide within the first hour)
Proteasomal Cleavage of C-terminus, IP (RMA) [2]: + (Major cleavage sites are defined as more than >1% of total digested peptide within the first hour)
Peptide Binding Affinity (HLA-A*2401 [3]): high
Peptide Binding Stability (HLA-A*2401 [4]): + (Stable peptides displayed IC50 at 20 °C that deviated <2 times of the IC50 at 4° C.)
Proteasomal Cleavage of C-terminus, IP (JY) [5]: + (Major cleavage sites are defined as more than >1% of total digested peptide within the first hour)

CC(C)C[C@H](NC(=O)[C@@H](N)Cc1ccccc1)C(=O)N[C@@H](Cc1c[nH]cn1)C(=O)N[C@@H](CO)C(=O)NCC(=O)N[C@H](C(=O)N[C@@H](C)C(=O)N[C@@H](CCCCN)C(=O)N[C@@H](CO)C(=O)N[C@H](C(=O)O)C(C)C)[C@@H](C)O [p53 113-122]
Proteasomal Cleavage of C-terminus, HH (HeLa) [1]: + (Major cleavage sites are defined as more than >1% of total digested peptide within the first hour)
Proteasomal Cleavage of C-terminus, IP (RMA) [2]: + (Major cleavage sites are defined as more than >1% of total digested peptide within the first hour)
HLA binding Stability (Table 5) (HLA-A*0201; HLA type A2, value in hours): 6 h
Peptide Binding Stability (HLA-A*0201; HLA-A*0201, p53 peptides): 6 h
Proteasomal Cleavage of C-terminus, IP (JY) [5]: + (Major cleavage sites are defined as more than >1% of total digested peptide within the first hour)

CC(C)C[C@H](NC(=O)[C@H](CCCNC(=N)N)NC(=O)[C@H](Cc1ccccc1)NC(=O)CNC(=O)[C@H](Cc1ccc(O)cc1)NC(=O)[C@H](CO)NC(=O)CNC(=O)[C@H](CCC(N)=O)NC(=O)[C@H](Cc1ccc(O)cc1)NC(=O)[C@@H](N)[C@@H](C)O)C(=O)O [p53 102-111]
Proteasomal Cleavage of C-terminus, HH (HeLa) [1]: + (Major cleavage sites are defined as more than >1% of total digested peptide within the first hour)
Proteasomal Cleavage of C-terminus, IP (RMA) [2]: + (Major cleavage sites are defined as more than >1% of total digested peptide within the first hour)
Peptide Binding Affinity (HLA-A*2401 [3]): high
Peptide Binding Stability (HLA-A*2401 [4]): + (Stable peptides displayed IC50 at 20 °C that deviated <2 times of the IC50 at 4° C.)
Proteasomal Cleavage of C-terminus, IP (JY) [5]: + (Major cleavage sites are defined as more than >1% of total digested peptide within the first hour)

CC(C)C[C@H](NC(=O)[C@H](CCCNC(=N)N)NC(=O)[C@H](Cc1ccccc1)NC(=O)CNC(=O)[C@H](Cc1ccc(O)cc1)NC(=O)[C@@H](N)CO)C(=O)NCC(=O)N[C@@H](Cc1ccccc1)C(=O)O [p53 106-113]
Proteasomal Cleavage of C-terminus, HH (HeLa) [1]: + (Major cleavage sites are defined as more than >1% of total digested peptide within the first hour)
Proteasomal Cleavage of C-terminus, IP (RMA) [2]: + (Major cleavage sites are defined as more than >1% of total digested peptide within the first hour)
Peptide Binding Affinity (HLA-A*2401 [3]): high
Peptide Binding Stability (HLA-A*2401 [4]): + (Stable peptides displayed IC50 at 20 °C that deviated <2 times of the IC50 at 4° C.)
Proteasomal Cleavage of C-terminus, IP (JY) [5]: + (Major cleavage sites are defined as more than >1% of total digested peptide within the first hour)

CC(C)C[C@H](NC(=O)[C@H](Cc1ccccc1)NC(=O)CNC(=O)[C@H](CC(C)C)NC(=O)[C@H](CCCNC(=N)N)NC(=O)[C@H](Cc1ccccc1)NC(=O)CNC(=O)[C@H](Cc1ccc(O)cc1)NC(=O)[C@@H](N)CO)C(=O)O [p53 106-114]
Proteasomal Cleavage of C-terminus, HH (HeLa) [1]: + (Major cleavage sites are defined as more than >1% of total digested peptide within the first hour)
Proteasomal Cleavage of C-terminus, IP (RMA) [2]: + (Major cleavage sites are defined as more than >1% of total digested peptide within the first hour)
HLA binding Affinity (Table 5) (HLA-A*2401 [3]; HLA type A24): high
Peptide Binding Affinity (HLA-A*2401 [3]): high
HLA binding Stability (Table 5) (HLA-A*2401 [4]; HLA type A24): +/− (Peptides that displayed IC50 at 20 °C of more than twice the IC50 at 4 °C but IC50 < 15 μM were considered to bind with intermediate stability.)
Peptide Binding Stability (HLA-A*2401 [4]): +/− (Peptides that displayed IC50 at 20 °C of more than twice the IC50 at 4 °C but IC50 < 15 μM were considered to bind with intermediate stability.)
Proteasomal Cleavage of C-terminus, IP (JY) [5]: + (Major cleavage sites are defined as more than >1% of total digested peptide within the first hour)

CC(C)[C@H](NC(=O)[C@H](CO)NC(=O)[C@H](CCCCN)NC(=O)[C@H](C)NC(=O)[C@@H](NC(=O)CN)[C@@H](C)O)C(=O)N[C@H](C(=O)N[C@@H](CS)C(=O)N[C@H](C(=O)N[C@@H](Cc1ccc(O)cc1)C(=O)O)[C@@H](C)O)[C@@H](C)O [p53 117-126]
HLA binding Stability (Table 5) (HLA-A*0101): + (Stable peptides displayed IC50 at 20 °C that deviated <2 times of the IC50 at 4° C.)
Peptide Binding Stability (HLA-A*0101): + (Stable peptides displayed IC50 at 20 °C that deviated <2 times of the IC50 at 4° C.)
HLA binding Stability (Table 5) (HLA-A*0301; HLA type A3): − (The rest was designated as unstable peptide binding.)
Peptide Binding Stability (HLA-A*0301; HLA-A*0301, IC50 at 20° C. vs 4° C.): − (The rest was designated as unstable peptide binding.)

CC(C)C[C@H](NC(=O)[C@H](CC(N)=O)NC(=O)CNC(=O)[C@H](CCC(=O)O)NC(=O)[C@@H](NC(=O)[C@@H](N)CCCNC(=N)N)C(C)C)C(=O)N[C@@H](CCCNC(=N)N)C(=O)N[C@H](C(=O)N[C@@H](CCC(=O)O)C(=O)N[C@@H](Cc1ccc(O)cc1)C(=O)O)C(C)C [p53 196-205]
HLA binding Stability (Table 5) (HLA-A*0101): + (Stable peptides displayed IC50 at 20 °C that deviated <2 times of the IC50 at 4° C.)
Peptide Binding Stability (HLA-A*0101): + (Stable peptides displayed IC50 at 20 °C that deviated <2 times of the IC50 at 4° C.)
